Reference: publication PMC7316778 (Nature Communications, 2020)
Read-outs that look alike come from different tables or passages of the source.

Assays:
CDC42 BPA (MRCKA) = CDC42 BPA (MRCKA) (Homo sapiens, UniProt Q5VT25); experiment: SelectScreen kinase assay
Description: (§1) Selectivity profiling assays were performed by the Invitrogen SelectScreen™ Services. […] The concentration of ATP was selected to be equal to the KM, unless indicated otherwise.

HUNK = biological target: T1, HUNK (Homo sapiens, UniProt P57058); experiment: SelectScreen kinase assay
T1 sequence (P57058 1-714): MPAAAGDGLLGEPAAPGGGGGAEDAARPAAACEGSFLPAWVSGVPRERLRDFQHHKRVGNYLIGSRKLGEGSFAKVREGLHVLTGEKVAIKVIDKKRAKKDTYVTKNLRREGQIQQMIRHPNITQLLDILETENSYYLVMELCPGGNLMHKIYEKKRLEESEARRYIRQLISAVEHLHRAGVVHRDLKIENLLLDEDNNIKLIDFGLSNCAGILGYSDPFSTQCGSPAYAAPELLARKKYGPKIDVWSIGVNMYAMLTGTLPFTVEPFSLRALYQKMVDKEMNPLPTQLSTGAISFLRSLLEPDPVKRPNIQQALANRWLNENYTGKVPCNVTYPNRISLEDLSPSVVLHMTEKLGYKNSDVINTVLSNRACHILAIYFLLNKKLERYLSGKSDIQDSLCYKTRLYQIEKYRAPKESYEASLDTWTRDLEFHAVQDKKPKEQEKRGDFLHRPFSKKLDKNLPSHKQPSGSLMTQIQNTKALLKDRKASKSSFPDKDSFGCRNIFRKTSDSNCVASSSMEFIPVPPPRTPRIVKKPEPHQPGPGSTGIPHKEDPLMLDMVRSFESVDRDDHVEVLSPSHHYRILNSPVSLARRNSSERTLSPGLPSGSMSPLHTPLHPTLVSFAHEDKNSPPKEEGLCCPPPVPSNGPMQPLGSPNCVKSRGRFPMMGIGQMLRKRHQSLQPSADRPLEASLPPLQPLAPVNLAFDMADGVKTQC
Description: as §1

MAP4K1 (HPK1) = MAP4K1 (HPK1) (Homo sapiens, UniProt Q92918); experiment: SelectScreen kinase assay
Sequence of MAP4K1 (HPK1) (Q92918 whole entry): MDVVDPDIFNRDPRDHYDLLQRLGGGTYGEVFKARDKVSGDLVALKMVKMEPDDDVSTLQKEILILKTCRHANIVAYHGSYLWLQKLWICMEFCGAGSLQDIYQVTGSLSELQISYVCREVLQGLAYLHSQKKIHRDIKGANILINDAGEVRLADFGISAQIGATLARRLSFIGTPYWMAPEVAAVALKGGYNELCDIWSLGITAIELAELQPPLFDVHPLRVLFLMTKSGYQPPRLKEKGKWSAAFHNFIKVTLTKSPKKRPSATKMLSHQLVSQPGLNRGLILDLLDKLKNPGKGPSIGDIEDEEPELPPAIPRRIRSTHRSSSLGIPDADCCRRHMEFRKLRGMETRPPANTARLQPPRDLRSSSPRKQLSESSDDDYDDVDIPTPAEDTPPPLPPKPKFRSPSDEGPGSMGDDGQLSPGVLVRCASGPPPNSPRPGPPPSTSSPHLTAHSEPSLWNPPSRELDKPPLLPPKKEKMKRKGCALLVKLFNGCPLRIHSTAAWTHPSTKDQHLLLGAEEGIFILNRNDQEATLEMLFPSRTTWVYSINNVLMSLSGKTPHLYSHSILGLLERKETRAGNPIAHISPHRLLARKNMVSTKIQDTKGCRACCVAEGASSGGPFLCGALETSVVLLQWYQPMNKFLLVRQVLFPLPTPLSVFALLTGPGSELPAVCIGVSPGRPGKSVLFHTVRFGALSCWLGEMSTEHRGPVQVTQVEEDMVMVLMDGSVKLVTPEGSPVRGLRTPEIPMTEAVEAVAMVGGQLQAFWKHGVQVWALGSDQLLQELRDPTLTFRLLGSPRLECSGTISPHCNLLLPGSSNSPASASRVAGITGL
Description: as §1

LRRK2 = LRRK2 (Homo sapiens, UniProt Q5S007); experiment: SelectScreen kinase assay
Sequence of LRRK2 (Q5S007 970-2527 limits assumed, species assumed): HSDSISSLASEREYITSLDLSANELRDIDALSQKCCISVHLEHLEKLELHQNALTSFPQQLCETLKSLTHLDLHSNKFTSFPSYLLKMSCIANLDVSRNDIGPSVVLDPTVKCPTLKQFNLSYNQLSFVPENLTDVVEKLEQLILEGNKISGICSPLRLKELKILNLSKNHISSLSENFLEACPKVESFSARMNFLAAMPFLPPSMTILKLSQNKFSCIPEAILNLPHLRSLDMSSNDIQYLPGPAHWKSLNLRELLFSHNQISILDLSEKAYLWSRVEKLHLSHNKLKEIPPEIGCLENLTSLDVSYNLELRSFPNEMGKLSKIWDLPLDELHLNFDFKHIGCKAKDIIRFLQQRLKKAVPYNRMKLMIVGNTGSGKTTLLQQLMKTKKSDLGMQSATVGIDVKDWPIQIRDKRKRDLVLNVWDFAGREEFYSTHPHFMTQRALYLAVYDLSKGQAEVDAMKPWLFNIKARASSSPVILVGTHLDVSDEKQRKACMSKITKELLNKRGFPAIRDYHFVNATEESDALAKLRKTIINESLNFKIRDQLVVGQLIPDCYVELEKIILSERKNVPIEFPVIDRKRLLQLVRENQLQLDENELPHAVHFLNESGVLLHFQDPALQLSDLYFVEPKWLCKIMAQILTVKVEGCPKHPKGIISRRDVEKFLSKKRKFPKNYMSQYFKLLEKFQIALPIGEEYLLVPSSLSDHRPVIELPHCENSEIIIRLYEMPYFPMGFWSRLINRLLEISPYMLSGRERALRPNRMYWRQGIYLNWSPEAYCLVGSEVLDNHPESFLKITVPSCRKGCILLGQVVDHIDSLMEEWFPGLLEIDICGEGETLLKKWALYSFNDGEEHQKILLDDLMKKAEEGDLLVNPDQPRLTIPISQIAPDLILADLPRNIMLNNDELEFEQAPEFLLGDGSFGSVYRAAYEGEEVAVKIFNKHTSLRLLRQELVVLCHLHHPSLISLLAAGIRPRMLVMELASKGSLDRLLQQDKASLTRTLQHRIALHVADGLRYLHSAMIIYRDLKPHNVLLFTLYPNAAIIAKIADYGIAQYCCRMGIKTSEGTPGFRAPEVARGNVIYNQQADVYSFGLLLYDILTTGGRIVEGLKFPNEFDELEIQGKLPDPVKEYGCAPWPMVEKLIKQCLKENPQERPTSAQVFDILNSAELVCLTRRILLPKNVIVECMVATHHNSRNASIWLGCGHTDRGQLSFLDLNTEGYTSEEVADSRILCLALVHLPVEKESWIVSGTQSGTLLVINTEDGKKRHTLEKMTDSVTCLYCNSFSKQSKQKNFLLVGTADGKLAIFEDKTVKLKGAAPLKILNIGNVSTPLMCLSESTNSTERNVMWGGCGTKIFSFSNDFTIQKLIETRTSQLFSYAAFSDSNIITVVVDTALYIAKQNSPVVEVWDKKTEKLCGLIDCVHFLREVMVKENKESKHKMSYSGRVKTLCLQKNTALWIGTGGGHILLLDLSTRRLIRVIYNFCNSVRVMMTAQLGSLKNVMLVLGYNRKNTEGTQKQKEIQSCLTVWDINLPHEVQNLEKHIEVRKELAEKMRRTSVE
Description: as §1

PRKACB (PRKAC beta) = PRKACB (PRKAC beta) (Homo sapiens, UniProt P22694); experiment: SelectScreen kinase assay; details: for Inhibition at 1 µM (%): PRKACB (PRKAC beta), LanthaScreen Binding
Description: as §1

STK32B (YANK2) = STK32B (YANK2) (Homo sapiens, UniProt Q9NY57); experiment: SelectScreen kinase assay
Sequence of STK32B (YANK2) (Q9NY57 whole entry): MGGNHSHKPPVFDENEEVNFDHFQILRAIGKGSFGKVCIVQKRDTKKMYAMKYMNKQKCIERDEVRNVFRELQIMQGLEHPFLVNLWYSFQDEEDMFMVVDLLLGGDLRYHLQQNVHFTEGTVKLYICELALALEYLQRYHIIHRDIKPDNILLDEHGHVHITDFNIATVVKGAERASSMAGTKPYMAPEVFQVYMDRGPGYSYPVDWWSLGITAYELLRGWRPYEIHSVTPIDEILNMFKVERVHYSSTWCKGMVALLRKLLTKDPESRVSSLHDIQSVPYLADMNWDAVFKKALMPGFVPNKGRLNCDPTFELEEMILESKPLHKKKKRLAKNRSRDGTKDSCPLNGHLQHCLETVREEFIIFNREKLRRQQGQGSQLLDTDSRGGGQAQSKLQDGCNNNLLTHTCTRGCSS
Description: as §1

PAK3 = PAK3 (Homo sapiens, UniProt O75914); experiment: SelectScreen kinase assay
Sequence of PAK3 (O75914 whole entry): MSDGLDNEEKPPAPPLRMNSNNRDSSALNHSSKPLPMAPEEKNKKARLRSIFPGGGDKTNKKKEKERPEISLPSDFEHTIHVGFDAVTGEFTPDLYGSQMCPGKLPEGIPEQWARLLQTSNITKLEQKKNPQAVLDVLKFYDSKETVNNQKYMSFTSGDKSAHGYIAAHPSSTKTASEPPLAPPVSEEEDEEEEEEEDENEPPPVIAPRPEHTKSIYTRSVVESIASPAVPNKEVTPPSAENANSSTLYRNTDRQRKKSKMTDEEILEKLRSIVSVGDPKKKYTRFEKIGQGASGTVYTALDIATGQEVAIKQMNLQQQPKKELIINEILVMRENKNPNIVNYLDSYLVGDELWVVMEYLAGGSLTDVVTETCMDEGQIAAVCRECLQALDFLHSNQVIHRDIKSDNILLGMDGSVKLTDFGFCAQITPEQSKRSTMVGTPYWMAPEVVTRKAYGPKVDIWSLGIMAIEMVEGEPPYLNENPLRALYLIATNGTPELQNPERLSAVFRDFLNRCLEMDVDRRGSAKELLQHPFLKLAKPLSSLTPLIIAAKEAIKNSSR
Description: as §1

[1] = biological target: T2, FES^S700C-SYK interaction (Homo sapiens, UniProt P07332, S700C); experiment: Co-immunoprecipitation in co-transfected U2OS cells; format: cell-based; details: WEL028 200 nM, 1 h
T2 construct: Full-length human cDNA encoding FES and PAK4 was obtained from Source Bioscience; expressed in transfected cells; host or cells: U2OS (human osteosarcoma)
Description: U2OS cells were co-transfected with FLAG-tagged FES and V5-tagged SYK and grown for 48 h as described above, followed by incubation with vehicle or WEL028 (200 nM) for 1 h. Cells were then washed with PBS and collected by scraping in IP-buffer (20 mM Tris-HCl pH 7.5, 150 mM NaCl, 1% Triton X-100 supplemented with […] Halt™ phosphatase and protease inhibitor cocktail (Thermo Fisher)). Cells were lysed by sonication on ice (three cycles of 10′′ on, 10′′ off at 25% maximum amplitude), centrifuged (14,000g, 10 min, 4 °C). The clear lysate was diluted to 1 mg/mL in IP-buffer and subjected to immunoprecipitation using Dynabeads™ Protein G Immunoprecipitation kit (Thermo Fisher) following manufacturer’s protocol. Briefly, anti-FLAG M2 antibody (1:100, Sigma Aldrich, F3156) was incubated with beads with gentle rotation (10 min, rt), after which lysate (500 µL of 1 mg/mL) was added and incubated (1 h, 4 °C). Beads were washed three times, transferred to clean tubes and eluted by suspension in 2× Laemmli buffer (50 µL, 10 min, 70 °C). Samples (10 µL per lane) were resolved by SDS-PAGE and immunoblotted using anti-V5 or anti-FLAG antibodies. Immunoprecipitations were performed in three independent replicates.

ITK = biological target: T3, ITK (Homo sapiens, UniProt Q08881); experiment: SelectScreen kinase assay; details: for Inhibition at 1 µM (%): ITK, ZLYTE, ATP Km app
T3 sequence (Q08881 1-620): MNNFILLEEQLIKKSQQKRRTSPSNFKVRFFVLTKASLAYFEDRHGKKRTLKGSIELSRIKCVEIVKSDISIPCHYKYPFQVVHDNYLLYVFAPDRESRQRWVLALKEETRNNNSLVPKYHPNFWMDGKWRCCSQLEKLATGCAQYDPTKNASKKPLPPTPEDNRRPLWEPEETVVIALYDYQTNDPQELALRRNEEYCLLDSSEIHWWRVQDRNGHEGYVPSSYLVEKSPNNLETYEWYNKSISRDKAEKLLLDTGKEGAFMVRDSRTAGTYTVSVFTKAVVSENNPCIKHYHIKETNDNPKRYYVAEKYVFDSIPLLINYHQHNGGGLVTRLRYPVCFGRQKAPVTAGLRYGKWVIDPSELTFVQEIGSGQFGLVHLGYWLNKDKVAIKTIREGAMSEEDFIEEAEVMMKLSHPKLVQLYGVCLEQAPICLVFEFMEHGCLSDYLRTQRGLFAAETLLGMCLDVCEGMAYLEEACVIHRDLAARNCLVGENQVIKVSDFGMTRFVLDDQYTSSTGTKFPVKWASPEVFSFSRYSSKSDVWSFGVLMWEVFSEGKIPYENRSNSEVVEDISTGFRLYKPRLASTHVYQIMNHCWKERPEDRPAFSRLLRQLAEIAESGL
Description: as §1

[2] = 1 h, 1 μM WEL028, 1 h preincubation

Sequence of CDC42 BPA (MRCKA) (Q5VT25 whole entry): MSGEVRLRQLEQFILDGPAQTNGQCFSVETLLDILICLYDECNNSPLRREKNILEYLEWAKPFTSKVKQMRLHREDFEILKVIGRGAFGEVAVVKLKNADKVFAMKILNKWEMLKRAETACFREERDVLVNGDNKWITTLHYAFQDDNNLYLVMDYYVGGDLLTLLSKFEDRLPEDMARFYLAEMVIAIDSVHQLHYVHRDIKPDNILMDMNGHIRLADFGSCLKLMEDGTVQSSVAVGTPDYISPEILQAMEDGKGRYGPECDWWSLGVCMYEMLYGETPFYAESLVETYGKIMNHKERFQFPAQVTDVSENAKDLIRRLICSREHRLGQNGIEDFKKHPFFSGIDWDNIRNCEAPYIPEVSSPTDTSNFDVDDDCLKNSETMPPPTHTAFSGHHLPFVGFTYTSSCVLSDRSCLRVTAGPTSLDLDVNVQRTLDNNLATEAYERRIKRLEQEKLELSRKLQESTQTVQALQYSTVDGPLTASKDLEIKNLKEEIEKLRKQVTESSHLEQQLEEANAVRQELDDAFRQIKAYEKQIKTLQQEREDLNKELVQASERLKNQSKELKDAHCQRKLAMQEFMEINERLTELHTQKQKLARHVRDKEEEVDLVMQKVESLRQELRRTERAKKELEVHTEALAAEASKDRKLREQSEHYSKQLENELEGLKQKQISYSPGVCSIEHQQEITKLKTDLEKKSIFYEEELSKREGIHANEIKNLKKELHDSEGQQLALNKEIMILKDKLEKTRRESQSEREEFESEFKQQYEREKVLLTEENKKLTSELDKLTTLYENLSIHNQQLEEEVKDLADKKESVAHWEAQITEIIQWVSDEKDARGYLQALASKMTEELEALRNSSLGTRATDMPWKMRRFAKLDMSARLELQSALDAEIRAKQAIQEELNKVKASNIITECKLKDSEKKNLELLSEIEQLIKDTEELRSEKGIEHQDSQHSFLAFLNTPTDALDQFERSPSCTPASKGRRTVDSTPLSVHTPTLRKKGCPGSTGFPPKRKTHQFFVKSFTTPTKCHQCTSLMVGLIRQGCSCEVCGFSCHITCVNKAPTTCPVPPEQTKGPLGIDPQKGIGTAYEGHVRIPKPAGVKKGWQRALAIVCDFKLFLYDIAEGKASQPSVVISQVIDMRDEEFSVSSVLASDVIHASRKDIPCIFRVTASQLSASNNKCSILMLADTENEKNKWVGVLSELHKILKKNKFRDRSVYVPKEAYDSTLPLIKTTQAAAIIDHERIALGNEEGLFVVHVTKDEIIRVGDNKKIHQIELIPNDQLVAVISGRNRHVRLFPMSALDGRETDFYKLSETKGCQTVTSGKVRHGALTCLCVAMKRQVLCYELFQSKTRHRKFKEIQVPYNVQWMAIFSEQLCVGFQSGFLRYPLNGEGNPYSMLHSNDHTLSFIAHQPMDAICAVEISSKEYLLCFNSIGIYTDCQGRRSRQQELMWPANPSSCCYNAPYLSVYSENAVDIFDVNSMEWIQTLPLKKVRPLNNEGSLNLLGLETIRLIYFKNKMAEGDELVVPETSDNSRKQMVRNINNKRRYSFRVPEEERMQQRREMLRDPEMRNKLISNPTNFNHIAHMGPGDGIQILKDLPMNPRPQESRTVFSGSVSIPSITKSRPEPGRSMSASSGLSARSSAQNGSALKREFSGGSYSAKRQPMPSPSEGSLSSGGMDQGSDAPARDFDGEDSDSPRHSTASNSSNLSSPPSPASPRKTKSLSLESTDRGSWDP

## C#CCOc1ccc(Nc2ncc(Cl)c(Nc3ccccc3NC(=O)C=C)n2)c(OC)c1 [Compound 6]
CDC42 BPA (MRCKA); [2]
  inhibition at 1 µM: -7%
CDC42 BPA (MRCKA); CDC42 BPA (MRCKA), 1 µM, ZLYTE, ATP Km app
  Inhibition at 1 µM (%): -20%
HUNK; [2]
  inhibition at 1 µM: 20%
HUNK; HUNK, 1 µM, LanthaScreen Binding, listed as WEL028, 1 µM
  Inhibition at 1 µM (%): 21%
HUNK; read-out: Inhibition at 1 µM (%), HUNK, 1 µM, LanthaScreen Binding
  inhibition at 1 µM: 19%
MAP4K1 (HPK1); [2]
  inhibition at 1 µM: 17%
MAP4K1 (HPK1); read-out: Inhibition at 1 µM (%), MAP4K1 (HPK1), 1 µM, LanthaScreen Binding
  inhibition at 1 µM: 16%
LRRK2
  IC50: 50.1 nM
LRRK2; 1 h
  inhibition at 1 µM: 94%
LRRK2; IC50 on that kinase divided by IC50 on FES^S700C
  Apparent fold selectivity: 12 fold
LRRK2; read-out: Inhibition at 1 µM (%)
  inhibition at 1 µM: 94%
PRKACB (PRKAC beta); [2]
  inhibition at 1 µM: 8%
PRKACB (PRKAC beta)
  Inhibition at 1 µM (%): 12%
PRKACB (PRKAC beta); listed as WEL028, 1 µM
  Inhibition at 1 µM (%): 5%
STK32B (YANK2); 1 µM, LanthaScreen Binding, listed as WEL028, 1 µM
  Inhibition at 1 µM (%): 6%
STK32B (YANK2); [2]
  inhibition at 1 µM: 7%
STK32B (YANK2); read-out: Inhibition at 1 µM (%), 1 µM, LanthaScreen Binding
  inhibition at 1 µM: 7%
PAK3; [2]
  inhibition at 1 µM: 7%
PAK3; PAK3, 1 µM, ZLYTE, ATP Km app, listed as WEL028, 1 µM
  Inhibition at 1 µM (%): 6%
PAK3; read-out: Inhibition at 1 µM (%), PAK3, 1 µM, ZLYTE, ATP Km app
  inhibition at 1 µM: 7%
[1]
  Co-precipitation of SYK with FES: inhibited the co-precipitation of SYK with FES
ITK; 1 μM WEL028, 1 h preincubation
  Inhibition (%): -7%
ITK
  Inhibition at 1 µM (%): -3%
ITK; listed as WEL028, 1 µM
  Inhibition at 1 µM (%): -10%
